From US7776566B2, “Method for producing purine nucleoside by fermentation” (priority 1997, dated 2010)

What was measured:
Assay type in all cases: biochemical, E. coli
[1] = target: T1, PRPP amidotransferase (PurF), wild type (Escherichia coli, UniProt P0AG16); test: PRPP amidotransferase activity of crude enzyme extracts and inhibition by AMP and GMP (wild type purF, pKFpurF); conditions: JM109/pKFpurF crude extract, activity with None 0.68
T1 construct: made in house; host or cells: E. coli JM109 (crude enzyme extract)
T1 sequence (P0AG16 2-505): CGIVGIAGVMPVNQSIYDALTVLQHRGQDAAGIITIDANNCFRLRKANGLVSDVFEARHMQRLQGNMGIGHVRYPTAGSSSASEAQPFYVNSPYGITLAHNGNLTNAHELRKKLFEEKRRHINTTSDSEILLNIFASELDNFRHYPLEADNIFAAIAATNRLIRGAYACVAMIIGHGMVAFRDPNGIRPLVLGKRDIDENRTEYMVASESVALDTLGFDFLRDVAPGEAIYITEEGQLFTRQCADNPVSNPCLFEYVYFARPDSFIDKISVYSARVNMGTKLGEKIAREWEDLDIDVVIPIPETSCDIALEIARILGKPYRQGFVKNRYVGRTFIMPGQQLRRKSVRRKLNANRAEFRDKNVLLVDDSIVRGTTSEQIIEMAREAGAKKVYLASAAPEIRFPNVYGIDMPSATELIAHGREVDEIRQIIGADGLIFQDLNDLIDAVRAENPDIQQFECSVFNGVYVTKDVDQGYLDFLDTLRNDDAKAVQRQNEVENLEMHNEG
Method: (§1) Recombinant bacteria obtained by transforming E. coli JM109 cells with the above plasmids were cultured in LB liquid medium for eight hours, and collected, and crude enzyme extracts were prepared from them. The PRPP amidotransferase activity of the extracts and degrees of inhibition by AMP and GMP were measured according to the method of L. J. Messenger (J. Biol. Chem., 254, 3382 (1979)).

[2] = target: T2, PRPP amidotransferase (PurF) K326Q + P410W (Escherichia coli, UniProt P0AG16, K327Q/P411W); test: PRPP amidotransferase activity of crude enzyme extracts and inhibition by AMP and GMP (mutant purF, pKFpurFKQPW); conditions: JM109/pKFpurFKQPW crude extract, activity with None 0.18
T2 construct: made in house; host or cells: E. coli JM109 (crude enzyme extract)
T2 sequence (P0AG16 2-505 K327Q/P411W): as the sequence (P0AG16 2-505) above, with K326Q, P410W counted along it
Method: (§2) A purF fragment was excised from the plasmid carrying the purF of about 1530 bp cloned into pCRTMII vector (Invitrogen) in Section 1) by digestion with PstI and HindIII, and inserted between the PstI and HindIII sites of the multi-cloning site of a plasmid for introducing mutation, pKF18 (Takara Shuzo) to obtain the target clone (pKFpurF). […] Therefore, the following synthetic DNA primers were prepared for gene substitution realizing mutations of Lys (K) at position 326 and Pro (P) at position 410 of PRPP amidotransferase (PurF) to Gln (Q) and Trp (W), respectively, and pKFpurF was subjected to site-directed mutagenesis according to the protocol of Site-directed Mutagenesis System Mutan-Super Express Km (Takara Shuzo) to introduce a site-directed mutation into the pKFpurF.
(§3) After the mutagenesis, 6 clones were randomly picked up from each of the resulting transformants, and plasmids were prepared from them. […]
as §1

[3] = target: T3, PRPP amidotransferase (PurF) K326Q (Escherichia coli, UniProt P0AG16, K327Q); test: PRPP amidotransferase activity of crude enzyme extracts and inhibition by AMP and GMP (mutant purF, pKFpurFKQ); conditions: JM109/pKFpurFKQ crude extract, activity with None 0.34
T3 construct: made in house; host or cells: E. coli JM109 (crude enzyme extract)
T3 sequence (P0AG16 2-505 K327Q): as the sequence (P0AG16 2-505) above, with K326Q counted along it
Method: as §2, §3, §1

[4] = target: T4, PRPP synthetase (Prs) D128A (Escherichia coli, UniProt P0A717, D129A); test: PRPP synthetase activity of crude enzyme extracts and inhibition by ADP (mutant prsDA); conditions: mutant type
T4 construct: made in house; host or cells: E. coli JM109 (crude enzyme extract)
Method: A prs fragment was excised from the plasmid carrying the prs of about 1 kb cloned in Section 1) by SalI and SphI digestion, and inserted between the SalI and SphI sites of the multi-cloning site of a plasmid for introducing mutation, pKF19k (Takara Shuzo) to obtain the target clone (pKFprs). […] It is also described that the enzyme whose Asp (D) at position 128 is mutated to Ala (A) is partially desensitized. Therefore, the following synthetic DNA primer was prepared for gene substitution realizing mutation of Asp (D) at position 128 PRPP synthetase (Prs) to Ala (A), and pKFprs was subjected to site-directed mutagenesis according to the protocol of Site-directed Mutagenesis System Mutan-Super Express Km (Takara Shuzo) to introduce a site-directed mutation into the pKFprs. […]
Recombinant bacteria obtained by transforming E. coli JM109 cells with the above four plasmids were cultured in LB liquid medium for eight hours, and collected, and crude enzyme extracts were prepared from them. The PRPP synthetase activity of the extracts and degrees of inhibition by ADP were measured according to the method of K. F. Jensen et al. (Analytical Biochemistry, 98, 254-263 (1979)) which was partially modified. Specifically, [a-^32P]ATP was used as the substrate and [^32P]AMP produced by the reaction was measured.

Nc1nc2c(ncn2[C@@H]2O[C@H](COP(=O)(O)O)[C@@H](O)[C@H]2O)c(=O)[nH]1 [GMP, guanosine monophosphate]
PRPP amidotransferase activity, 10 mM GMP ([1]; 10 mM GMP): 0.10 µmol/min/mg
PRPP amidotransferase activity, 10 mM GMP ([2]; 10 mM GMP): 0.17 µmol/min/mg
PRPP amidotransferase activity, 10 mM GMP ([3]; 10 mM GMP): 0.33 µmol/min/mg

Nc1ncnc2c1ncn2[C@@H]1O[C@H](COP(=O)(O)OP(=O)(O)O)[C@@H](O)[C@H]1O [ADP, adenosine diphosphate]
PRPP synthetase (Prs) specific activity, 5 mM ADP ([4]; JM109/pSTVprsDA, medium copy, activity with None 10.6): 2.7 nmole/min/mg crude enzyme extract
PRPP synthetase (Prs) specific activity, 5 mM ADP ([4]; JM109/pUCprsDA, high copy, activity with None 80.8): 20.2 nmole/min/mg crude enzyme extract

Nc1ncnc2c1ncn2[C@@H]1O[C@H](COP(=O)(O)O)[C@@H](O)[C@H]1O [AMP, adenosine monophosphate]
PRPP amidotransferase activity, 10 mM AMP ([1]; 10 mM AMP): 0.48 µmol/min/mg
PRPP amidotransferase activity, 10 mM AMP ([2]; 10 mM AMP): 0.16 µmol/min/mg
PRPP amidotransferase activity, 10 mM AMP ([3]; 10 mM AMP): 0.32 µmol/min/mg
